Laboratory results from patent publication US9000002B2, “N1-substituted-5-fluoro-2-oxopyrimidinone-1(2H)-carboxamide derivatives” (Dow Agrosciences LLC, priority 2009, dated 2015).
Like-named read-outs stand apart in the source and are kept apart here.

Tests used:
[1] = test system: Mycosphaerella graminicola; Anamorph: Septoria tritici; Bayer Code SEPTTR; assay: Evaluation of fungicidal activity: leaf blotch of wheat (SEPTTR), wheat plants variety Yuma; assay type: in vivo; conditions: Zymoseptoria tritici
Protocol: Evaluation of Fungicidal Activity: Leaf Blotch of Wheat (Mycosphaerella graminicola; Anamorph: Septoria tritici; Bayer Code […]) Wheat plants (variety Yuma) were grown from seed in a greenhouse in 50% mineral soil/50% soil-less Metro mix until the first leaf was fully emerged, with 7-10 seedlings per pot. These plants were inoculated with an aqueous spore suspension of Septoria tritici either prior to or after fungicide treatments. After inoculation the plants were kept in 100% relative humidity (one day in a dark dew chamber followed by two to three days in a lighted dew chamber) to permit spores to germinate and infect the leaf. The plants were then transferred to a greenhouse for disease to develop. The following table presents the activity of typical compounds of the present disclosure when evaluated in these experiments. The effectiveness of the test compounds in controlling disease was determined by assessing the severity of disease on treated plants, then converting the severity to percent control based on the level of disease on untreated, inoculated plants. • In each case of Table II the rating scale is as follows: […]

[2] = 24 h, One-Day Protectant (1DP), 100 ppm, wheat plants, percent control vs untreated inoculated plants, read-out: SEPTTR 100 PPM 1DP (% Disease Control rating)
[3] = 72 h, Three-Day Curative (3DC), 100 ppm, wheat plants, percent control vs untreated inoculated plants, read-out: SEPTTR 100 PPM 3DC (% Disease Control rating)
[4] = 24 h, read-out: SEPTTR 100 PPM 1DP (% Disease Control rating)
[5] = 72 h, read-out: SEPTTR 100 PPM 3DC (% Disease Control rating)

Compound | melting point | pest or weed control at 100 ppm [1, 2] [%] | pest or weed control at 100 ppm [1, 3] [%] | pest or weed control at 100 ppm [1, 4] [%] | pest or weed control at 100 ppm [1, 5] [%]
Nc1nc(=O)n(C(=O)Nc2ccc(F)cc2)cc1F [Compound 21] | 257 to 259 °C | 76 to 100 | 76 to 100 | – | –
O=C(Nc1ccc(F)cc1F)n1cc(F)c(NCc2ccccc2F)nc1=O [Compound 29] | 150 to 153 °C | 0 to 25 | 26 to 50 | – | –
Nc1nc(=O)n(C(=O)Nc2ccc3sccc3c2)cc1F [Compound 19] | 282 to 284 °C | 76 to 100 | 76 to 100 | – | –
Nc1nc(=O)n(C(=O)Nc2ccsc2)cc1F [Compound 20] | 263 to 265 °C | 76 to 100 | 76 to 100 | – | –
N#Cc1ccc(NC(=O)n2cc(F)c(N)nc2=O)cc1 [Compound 13] | 254 to 257 °C | 76 to 100 | 51 to 75 | – | –
Nc1nc(=O)n(C(=O)Nc2ccccc2)cc1F [Compound 6, 4-amino-5-fluoro-2-oxo-N-phenylpyrimidine-1(2H)-carboxamide] | 275 to 277 °C (dec.) | – | – | 76 to 100 | 76 to 100
Nc1nc(=O)n(C(=O)Nc2ccc(F)c(Cl)c2)cc1F [Compound 11] | 251 to 254 °C | 76 to 100 | 26 to 50 | – | –
Cn1ccc2cc(NC(=O)n3cc(F)c(N)nc3=O)ccc21 [Compound 18] | 268 to 270 °C | 76 to 100 | 76 to 100 | – | –
CCCNC(=O)n1cc(F)c(NCc2ccccc2F)nc1=O [Compound 32] | 113 to 116 °C | 26 to 50 | 51 to 75 | – | –
O=C(Nc1ccccc1)n1cc(F)c(NCc2ccccc2F)nc1=O [Compound 28, 5-fluoro-4-(2-fluorobenzylamino)-2-oxo-N-phenylpyrimidine-1(2H)-carboxamide] | 154 to 157 °C | – | – | 0 to 25 | 26 to 50
CC(C)NC(=O)n1cc(F)c(N)nc1=O [Compound 24] | 291 to 294 °C | 76 to 100 | 76 to 100 | – | –
CCOC(=O)CNC(=O)n1cc(F)c(N)nc1=O [Compound 25] | 220 to 224 °C | 76 to 100 | 76 to 100 | – | –
Cc1ccccc1NC(=O)n1cc(F)c(N)nc1=O [Compound 9] | 277 to 280 °C (dec.) | 76 to 100 | 76 to 100 | – | –
CN(C)/C=N/c1nc(=O)n(C(=O)NCc2ccccc2)cc1F [Compound 3, (E)-N-benzyl-4-((dimethylamino)methyleneamino)-5-fluoro-2-oxopyrimidine-1(2H)-carboxamide] | 147 to 150 °C | 76 to 100 | 76 to 100 | – | –
CCCNC(=O)n1cc(F)c(N)nc1=O [Compound 23] | 290 to 293 °C | 76 to 100 | 76 to 100 | – | –
CCCCCNC(=O)n1cc(F)c(N)nc1=O [Compound 4, 4-amino-5-fluoro-2-oxo-N-pentylpyrimidine-1(2H)-carboxamide] | 289 to 292 °C | 76 to 100 | 76 to 100 | – | –
Nc1nc(=O)n(C(=O)Nc2cccc(Cl)c2)cc1F [Compound 14, 4-amino-N-(3-chlorophenyl)-5-fluoro-2-oxopyrimidine-1(2H)-carboxamide] | 250 to 252 °C | 76 to 100 | 76 to 100 | – | –
O=C(Nc1cccc(Cl)c1)n1cc(F)c(NCc2ccccc2F)nc1=O [Compound 31] | 158 to 160 °C | 0 to 25 | 0 to 25 | – | –
Nc1nc(=O)n(C(=O)Nc2ccc(Cl)cc2)cc1F [Compound 12] | 261 to 264 °C | 76 to 100 | 76 to 100 | – | –
Nc1nc(=O)n(C(=O)Nc2ccc3ccccc3c2)cc1F [Compound 17] | 273 to 275 °C | 76 to 100 | 76 to 100 | – | –

Further lines, with some results ahead:

melting point | Compound | pest or weed control at 100 ppm [1, 2] [%] | pest or weed control at 100 ppm [1, 3] [%] | pest or weed control at 100 ppm [1, 4] [%] | pest or weed control at 100 ppm [1, 5] [%]
192 to 196 °C | CN(C(=S)n1cc(F)c(N)nc1=O)c1ccccc1 [Compound 34, 4-amino-5-fluoro-N-methyl-2-oxo-N-phenylpyrimidine-1(2H)-carbothioamide] | 76 to 100 | 76 to 100 | – | –
170 to 172 °C | CC(=O)Nc1nc(=O)n(C(=O)NCc2ccc(Cl)cc2)cc1F [Compound 47] | 76 to 100 | 76 to 100 | – | –
248 to 250 °C | CCNC(=O)n1cc(F)c(NC(=O)NCc2ccccc2OC)nc1=O [Compound 49, N-ethyl-5-fluoro-4-(3-(2-methoxybenzyl)ureido)-2-oxopyrimidine-1(2H)-carboxamide] | 0 to 25 | 0 to 25 | – | –
248 to 250 °C | CCCNC(=O)n1cc(F)c(NC(=O)NCc2ccccc2OC)nc1=O [Compound 51] | 0 to 25 | 0 to 25 | – | –
226 to 228 °C | CCCNC(=O)n1cc(F)c(NC(=O)C(C)C)nc1=O [Compound 41] | 76 to 100 | 76 to 100 | – | –
223 to 226 °C | CCN(C(=S)n1cc(F)c(N)nc1=O)c1ccccc1 [Compound 37] | 76 to 100 | 76 to 100 | – | –
249 to 251 °C | CCNC(=O)n1cc(F)c(NC(=O)c2ccccc2)nc1=O [Compound 44] | 76 to 100 | 76 to 100 | – | –
229 to 231 °C | COc1ccccc1CNC(=O)Nc1nc(=O)n(C(=O)NCc2ccccc2F)cc1F [Compound 53] | 0 to 25 | 0 to 25 | – | –
118 to 123 °C | CCN(CC)C(=S)n1cc(F)c(/N=C/N(C)C)nc1=O [Compound 33, (E)-4-((dimethylamino)methyleneamino)-N,N-diethyl-5-fluoro-2-oxopyrimidine-1(2H)-carbothioamide] | 0 to 25 | 26 to 50 | – | –
210 to 212 °C | O=C(Nc1nc(=O)n(C(=O)NCc2ccc(Cl)cc2)cc1F)c1ccccc1 [Compound 48] | 76 to 100 | 76 to 100 | – | –
251 to 253 °C | COc1ccccc1CNC(=O)Nc1nc(=O)n(C(=O)NC(C)C)cc1F [Compound 50] | 0 to 25 | 0 to 25 | – | –
200 to 203 °C | CN(C(=S)n1cc(F)c(N)nc1=O)c1cc(Cl)cc(Cl)c1 [Compound 36] | 76 to 100 | 76 to 100 | – | –
258 to 260 °C | CCCNC(=O)n1cc(F)c(NC(=O)c2ccccc2)nc1=O [Compound 40] | 76 to 100 | 76 to 100 | – | –
239 to 241 °C | CCNC(=O)n1cc(F)c(NC(=O)c2ccccc2Cl)nc1=O [Compound 46] | 76 to 100 | 51 to 75 | – | –
